Measurements published in article PMC7730441, “Acetylcholinesterase and butyrylcholinesterase inhibitory activities of khellactone coumarin derivatives isolated from Peucedanum japonicum Thurnberg” (Scientific Reports, 2020).
Values joined by “and” are separate entries in the source; they are usually repeats but may differ in a detail not shown here. Equal entries are not always repeated.

Experiments:
BChE (from equine serum) = biological target: T1, BChE (from equine serum) (Equus caballus, UniProt P81908); test: biochemical; settings: for IC50: 15 min preincubation, read-out: IC50 (µM) BChE
T1 construct: BChE (from equine serum); purchased Sigma-Aldrich; host or cells: equine serum
T1 sequence (P81908 whole entry): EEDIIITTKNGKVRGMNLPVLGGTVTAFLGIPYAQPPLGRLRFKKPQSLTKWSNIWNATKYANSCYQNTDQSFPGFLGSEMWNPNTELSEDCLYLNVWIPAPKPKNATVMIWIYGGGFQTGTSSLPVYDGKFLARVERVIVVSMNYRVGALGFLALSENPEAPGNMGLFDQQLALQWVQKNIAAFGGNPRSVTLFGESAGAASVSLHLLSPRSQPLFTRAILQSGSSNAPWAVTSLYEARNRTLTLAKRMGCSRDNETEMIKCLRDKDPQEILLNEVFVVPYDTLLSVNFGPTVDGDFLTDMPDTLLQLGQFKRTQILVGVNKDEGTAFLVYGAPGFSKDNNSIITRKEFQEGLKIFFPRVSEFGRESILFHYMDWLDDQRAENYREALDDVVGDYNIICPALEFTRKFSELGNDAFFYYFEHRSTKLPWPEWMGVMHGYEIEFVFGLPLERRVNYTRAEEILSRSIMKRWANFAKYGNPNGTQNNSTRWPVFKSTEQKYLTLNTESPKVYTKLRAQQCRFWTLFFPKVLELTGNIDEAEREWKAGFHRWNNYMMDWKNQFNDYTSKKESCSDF
Description: (§1) AChE assays were performed as described by Ellman et al.[41] with slight modifications. […] DTNB was used for color development, caused by reaction between it and thiocholine (a product of AChE). For inhibitory assays, compounds were preincubated with AChE for 15 min prior to ATCI and DTNB addition. BChE activity was assayed using the same method, but BTCI was used instead of ATCI.
(§2) Inhibitions of the activities of AChE, BChE, MAO-A, and MAO-B by the 15 compounds were investigated at an inhibitor concentration of 10 µM. IC50 values were also determined. […] The inhibition types and Ki values were determined using Lineweaver–Burk Plots and secondary plots.

[1] = biological target: T2, AChE (Type VI-S; from Electrophorus electricus) (Electrophorus electricus, UniProt O42275); test: biochemical; settings: for IC50 / remaining activity at 10 µM / Residual activity at 10 µM (%) AChE: 15 min preincubation; for IC50: read-out: IC50 (µM) AChE; for remaining activity at 10 µM: read-out: Residual activity at 10 µM (%) AChE, inhibitor 10 µM; for SI = IC50 of AChE/ IC50 of BChE: selectivity index; for Ki: Lineweaver–Burk and secondary plots, read-out: Ki value for AChE inhibition; for Inhibition type, AChE: Lineweaver–Burk plots; for Residual activity at 10 µM (%) AChE: inhibitor 10 µM
T2 construct: AChE (Type VI-S; from Electrophorus electricus); purchased Sigma-Aldrich Type VI-S (catalogue number not given)
T2 sequence (O42275 24-633): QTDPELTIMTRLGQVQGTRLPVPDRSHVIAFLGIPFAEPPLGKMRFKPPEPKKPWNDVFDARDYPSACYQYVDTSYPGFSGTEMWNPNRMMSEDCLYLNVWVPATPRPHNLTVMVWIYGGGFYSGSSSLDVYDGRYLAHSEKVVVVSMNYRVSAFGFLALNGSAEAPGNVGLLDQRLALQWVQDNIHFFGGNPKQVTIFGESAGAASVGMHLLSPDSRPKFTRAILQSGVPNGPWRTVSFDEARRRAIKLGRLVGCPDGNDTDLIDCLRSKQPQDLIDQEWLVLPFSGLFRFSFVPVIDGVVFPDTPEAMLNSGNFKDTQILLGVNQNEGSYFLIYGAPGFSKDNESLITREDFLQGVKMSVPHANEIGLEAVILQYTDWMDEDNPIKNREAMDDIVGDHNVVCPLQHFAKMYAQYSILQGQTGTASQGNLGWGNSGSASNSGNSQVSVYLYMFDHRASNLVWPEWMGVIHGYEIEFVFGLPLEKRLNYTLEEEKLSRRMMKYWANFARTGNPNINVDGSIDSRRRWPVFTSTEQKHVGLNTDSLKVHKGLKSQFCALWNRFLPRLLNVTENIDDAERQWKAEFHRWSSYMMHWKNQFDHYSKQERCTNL
Description: as §1, §2

[2] = design: method as in PMID 31704444; settings: up to 10 µg/µL (i.e., ~ 25 mM); cited from earlier work
recombinant human MAO-A = biological target: T3, recombinant human MAO-A (Homo sapiens, UniProt P21397); test: MAO-A inhibition assay (kynuramine); format: biochemical; settings: inhibitor 10 µM; read-out: Residual activity at 10 µM (%) MAO-A
T3 construct: purchased Sigma-Aldrich
T3 sequence (P21397 1-527): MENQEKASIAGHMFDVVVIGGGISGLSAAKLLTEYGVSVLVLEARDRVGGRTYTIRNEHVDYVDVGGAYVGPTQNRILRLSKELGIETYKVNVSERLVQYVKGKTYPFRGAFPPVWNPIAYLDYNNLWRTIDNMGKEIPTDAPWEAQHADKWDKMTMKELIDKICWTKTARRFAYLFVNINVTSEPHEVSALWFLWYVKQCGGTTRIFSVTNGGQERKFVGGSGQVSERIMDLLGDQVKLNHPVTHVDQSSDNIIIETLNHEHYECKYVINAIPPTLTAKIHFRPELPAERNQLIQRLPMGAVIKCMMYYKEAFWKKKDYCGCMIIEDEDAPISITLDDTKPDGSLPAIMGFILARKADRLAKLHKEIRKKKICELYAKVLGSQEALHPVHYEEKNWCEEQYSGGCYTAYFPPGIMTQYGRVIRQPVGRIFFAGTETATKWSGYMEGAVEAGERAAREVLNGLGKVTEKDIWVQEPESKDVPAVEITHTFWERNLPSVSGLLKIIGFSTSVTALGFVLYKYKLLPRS
Description: as §1, §2

BChE = biological target: T4, BChE (Equus caballus, UniProt P81908); test: Reversibility of BChE inhibition by dialysis; format: biochemical, equine
T4 construct: BChE (from equine serum); purchased Sigma-Aldrich; host or cells: equine serum
T4 sequence (P81908 whole entry): as the sequence (P81908 whole entry) above
Description: (§3) Inhibitor reversibilities were examined using the dialysis method, using with AChE or BChE, rather than MAO enzymes. […] Dialysis was conducted for 6 h with stirring and two buffer changes. Residual activities before (AU) and after (AD) dialysis were compared to those of non-treated controls, and reversibility types were determined by comparing AD and AU values.
(§4) For recovery experiments, preincubated enzyme mixtures were dialyzed as described in the text.

[3] = tested on: LPS-stimulated RAW264.7 cells; design: method as in PMID 31704444; settings: at 10 µg/µL; cited from earlier work
recombinant human MAO-B = biological target: T5, recombinant human MAO-B (Homo sapiens, UniProt P27338); test: MAO-B inhibition assay (benzylamine); format: biochemical; settings: inhibitor 10 µM; read-out: Residual activity at 10 µM (%) MAO-B
T5 construct: purchased Sigma-Aldrich
T5 sequence (P27338 1-520): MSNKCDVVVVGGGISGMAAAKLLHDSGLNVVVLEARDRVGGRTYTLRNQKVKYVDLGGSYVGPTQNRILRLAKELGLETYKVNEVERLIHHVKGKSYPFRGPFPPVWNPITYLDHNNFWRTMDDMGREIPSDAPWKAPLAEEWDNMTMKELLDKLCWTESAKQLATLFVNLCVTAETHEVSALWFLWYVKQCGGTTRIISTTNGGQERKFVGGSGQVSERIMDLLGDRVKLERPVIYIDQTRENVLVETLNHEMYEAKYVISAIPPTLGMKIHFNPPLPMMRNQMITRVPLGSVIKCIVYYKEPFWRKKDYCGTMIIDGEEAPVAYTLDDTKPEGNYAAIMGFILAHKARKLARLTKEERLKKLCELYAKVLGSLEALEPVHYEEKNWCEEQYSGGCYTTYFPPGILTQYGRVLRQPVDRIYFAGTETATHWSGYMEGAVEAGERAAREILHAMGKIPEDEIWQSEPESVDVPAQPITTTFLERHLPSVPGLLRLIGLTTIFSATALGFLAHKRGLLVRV
Description: as §1, §2

AChE = biological target: T6, AChE (Electrophorus electricus, UniProt O42275); test: Reversibility of AChE inhibition by dialysis; format: biochemical; settings: for Reversibility of AChE inhibition: dialysis method; for Residual AChE activity before dialysis (AU) / Residual AChE activity after dialysis (AD): inhibitor ~ 2 × IC50: PJ13, 20 µM, PJ15, 20 µM, tacrine, 0.54 µM; for Residual AChE activity before dialysis (AU): 30 min preincubation; for Residual AChE activity after dialysis (AD): dialysis 6 h
T6 construct: AChE (Type VI-S; from Electrophorus electricus); purchased Sigma-Aldrich Type VI-S (catalogue number not given)
T6 sequence (O42275 24-633): as the sequence (O42275 24-633) above
Description: as §3, §4

Row | SMILES | IC50 (BChE (from equine serum)) | Ki (BChE (from equine serum); Lineweaver–Burk and secondary plots, read-out: Ki value for BChE inhibition) [µM] | Inhibition type, BChE (BChE (from equine serum); Lineweaver–Burk plots) | IC50 [1] [µM] | remaining activity at 10 µM [1] [%] | SI = IC50 of AChE/ IC50 of BChE [1] | Toxicity [2] | remaining activity at 10 µM (recombinant human MAO-A) [%] | Reversibility of BChE inhibition (BChE; dialysis method) | Residual BChE activity before dialysis (AU) (BChE; inhibitor ~ 2 × IC50: PJ5, 14 µM, tacrine, 0.54 µM, 30 min preincubation) [%] | Residual BChE activity after dialysis (AD) (BChE; inhibitor ~ 2 × IC50: PJ5, 14 µM, tacrine, 0.54 µM, dialysis 6 h) [%] | Anti-inflammatory effects [3] | remaining activity at 10 µM (recombinant human MAO-B) [%] | Ki [1] [µM] | Inhibition type, AChE [1] | Residual activity at 10 µM (%) AChE [1] [%] | Reversibility of AChE inhibition (AChE) | Residual AChE activity before dialysis (AU) (AChE) [%] | Residual AChE activity after dialysis (AD) (AChE) [%]
1 | C/C=C(/C)C(=O)O[C@@H]1c2c(ccc3ccc(=O)oc23)OC(C)(C)[C@@H]1OC(=O)C=C(C)C [PJ5, senecioyl-4′-angeloyl-khellactone] | 7.22 µM and 7.2 µM | 4.16 | mixed-type | > 40 | 96 ± 2.83 | > 5.54 | non-toxic | 84.7 ± 9.3 | reversible | 41.2 | 86.8 | potent | 96 ± 0.52 |  |  |  |  |  | 
2 | C/C=C(/C)C(=O)O[C@@H]1[C@H](OC(=O)C(C)CC)c2c(ccc3ccc(=O)oc23)OC1(C)C (some centres unmarked) [PJ13, 3′-angeloyl-4′-(2-methylbutyryl)khellactone] | > 40 µM |  |  | 9.28 ± 0.094 | < 50 | < 0.23 | non-toxic | 88.5 ± 5.41 |  |  |  | potent | 64.6 ± 8.82 | 5.98 | mixed-type | 48.0 ± 9.40 | reversible | 34.7 | 72.3
3 | CCC(C)C(=O)O[C@@H]1c2c(ccc3ccc(=O)oc23)OC(C)(C)[C@@H]1OC(=O)CC(C)C (some centres unmarked) [PJ15, 3′-isovaleryl-4′-(2-methylbutyroyl)khellactone] | > 40 µM |  |  | 10 ± 0.48 | < 50 | < 0.25 | non-toxic | 76.9 ± 4.2 |  |  |  | potent | 73.3 ± 7.21 | 10.4 | mixed-type | 50.0 ± 2.82 | reversible | 32.8 | 68.7
